The record followed here is patent US8569267B2, “Tetracyclic tetrahydrofuran derivatives containing cyclic amine side chain” (Janssen Pharmaceutica, NV, priority 2005, dated 2013).

Assay [1] deals with T1, NET (norepinephrine transporter) (Rattus norvegicus, UniProt Q63380).
T1 construct: Cortex from rat brain was collected and homogenised; from tissue; host or cells: rat brain cortex
The assay can be described thus: In vitro determination of NET reuptake inhibition ([3H]Nixosetine binding, rat brain cortex). The conditions noted are these: rat brain cortex, read-out: NET pIC50 (converted). The essentials:
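Competition curves and percentage specific binding came from scintillation counting of filter-trapped radioactivity. The membranes were rat cortical homogenate in pH 7.4 Tris buffer with 120 mM NaCl and 5 mM KCl. Test compounds competed with [3H]nisoxetine for binding.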

Assay [2] concerns the target T2, human cloned 5-HT2C receptor, expressed in CHO cells (Homo sapiens, UniProt P28335).
T2 construct: expressed in transfected cells; host or cells: CHO cells
T2 sequence (P28335 33-458): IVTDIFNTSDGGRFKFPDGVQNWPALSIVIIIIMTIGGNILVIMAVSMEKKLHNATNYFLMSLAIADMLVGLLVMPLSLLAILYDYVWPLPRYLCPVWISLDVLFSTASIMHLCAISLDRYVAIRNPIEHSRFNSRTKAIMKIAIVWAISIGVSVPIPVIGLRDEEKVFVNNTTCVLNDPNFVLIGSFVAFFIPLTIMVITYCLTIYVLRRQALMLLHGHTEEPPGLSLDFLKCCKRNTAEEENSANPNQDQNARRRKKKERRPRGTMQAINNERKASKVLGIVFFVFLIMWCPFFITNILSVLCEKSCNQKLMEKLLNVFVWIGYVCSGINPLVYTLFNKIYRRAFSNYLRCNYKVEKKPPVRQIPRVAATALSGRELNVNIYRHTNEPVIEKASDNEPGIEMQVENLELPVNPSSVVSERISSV
The assay can be described thus: In vitro binding affinity for 5-HT2C receptor ([3H]mesulergine radioligand binding). The conditions noted are these: human cloned 5-HT2C receptor, read-out: 5-HT2C pIC50 (converted). The essentials:
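Receptor-bound radioligand counted after separation from unbound label once equilibrium is reached. Test compound added across a concentration range to tissue preparation plus radioligand; inhibition of binding reflects affinity and concentration.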

Assay [3] concerns the target T3, human Dopamine D2L receptor (Homo sapiens, UniProt P14416).
T3 construct: expressed in transfected cells; host or cells: CHO cells
The assay can be described thus: In vitro binding affinity for human D2L receptor ([3H]Spiperone binding). The conditions noted are these: human D2L receptor-transfected CHO cell membranes, read-out: D2L pIC50 (converted). The essentials: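 Competition curves were expressed as percent specific binding, measured by scintillation counting after filtration onto GF/B filters and ice-cold Tris washes. Test compounds competed with [3H]Spiperone, added from a 2 nmol/L dilution, for 30 min at 37° C on transfected CHO membranes in pH 7.7 Tris-HCl salt buffer. Butaclamol at 10^−6 mol/l final marked non-specific binding.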

For assay [4], the target named is T4, human cloned 5-HT2A receptor, expressed in L929 cells (Homo sapiens, UniProt P28223).
T4 construct: expressed in transfected cells; host or cells: L929 cells
T4 sequence (P28223 whole entry): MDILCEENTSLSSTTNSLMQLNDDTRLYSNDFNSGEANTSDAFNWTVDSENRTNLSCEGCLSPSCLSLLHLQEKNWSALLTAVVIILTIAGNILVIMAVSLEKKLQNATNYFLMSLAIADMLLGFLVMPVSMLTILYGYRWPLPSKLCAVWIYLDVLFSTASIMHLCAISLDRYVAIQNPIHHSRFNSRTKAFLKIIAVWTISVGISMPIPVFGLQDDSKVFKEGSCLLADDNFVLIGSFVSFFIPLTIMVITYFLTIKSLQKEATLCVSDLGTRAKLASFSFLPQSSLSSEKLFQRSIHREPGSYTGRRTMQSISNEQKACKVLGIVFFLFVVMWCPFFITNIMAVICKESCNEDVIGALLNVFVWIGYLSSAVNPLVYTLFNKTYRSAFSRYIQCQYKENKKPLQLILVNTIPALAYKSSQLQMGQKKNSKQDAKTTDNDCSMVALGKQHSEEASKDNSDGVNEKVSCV
As to the kind of experiment: In vitro binding affinity for 5-HT2A receptor ([125I]R91150 radioligand binding). The conditions noted are these: human cloned 5-HT2A receptor in L929 cells, [125I]R91150; read-out: 5-HT2A pIC50 (converted). Put shortly: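 Competition radioligand binding to human cloned 5-HT2A receptor expressed in L929 cells, using [125I]R91150 with test compound at various concentrations. At equilibrium, receptor-bound radioactivity was separated from free and counted. Affinity reflects inhibition of radioligand binding.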

T3 sequence (P14416 whole entry): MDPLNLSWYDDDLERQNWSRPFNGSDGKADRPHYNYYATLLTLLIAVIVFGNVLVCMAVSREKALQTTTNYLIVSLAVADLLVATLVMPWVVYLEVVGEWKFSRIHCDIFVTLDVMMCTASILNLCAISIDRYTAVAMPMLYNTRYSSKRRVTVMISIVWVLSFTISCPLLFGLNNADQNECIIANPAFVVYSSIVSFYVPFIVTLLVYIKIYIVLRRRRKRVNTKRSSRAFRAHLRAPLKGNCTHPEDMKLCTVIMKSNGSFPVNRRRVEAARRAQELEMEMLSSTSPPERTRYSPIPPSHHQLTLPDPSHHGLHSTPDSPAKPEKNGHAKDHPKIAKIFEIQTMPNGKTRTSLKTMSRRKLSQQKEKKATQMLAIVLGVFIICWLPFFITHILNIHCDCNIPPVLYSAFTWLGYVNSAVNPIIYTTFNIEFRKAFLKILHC
T1 sequence (Q63380 1-617): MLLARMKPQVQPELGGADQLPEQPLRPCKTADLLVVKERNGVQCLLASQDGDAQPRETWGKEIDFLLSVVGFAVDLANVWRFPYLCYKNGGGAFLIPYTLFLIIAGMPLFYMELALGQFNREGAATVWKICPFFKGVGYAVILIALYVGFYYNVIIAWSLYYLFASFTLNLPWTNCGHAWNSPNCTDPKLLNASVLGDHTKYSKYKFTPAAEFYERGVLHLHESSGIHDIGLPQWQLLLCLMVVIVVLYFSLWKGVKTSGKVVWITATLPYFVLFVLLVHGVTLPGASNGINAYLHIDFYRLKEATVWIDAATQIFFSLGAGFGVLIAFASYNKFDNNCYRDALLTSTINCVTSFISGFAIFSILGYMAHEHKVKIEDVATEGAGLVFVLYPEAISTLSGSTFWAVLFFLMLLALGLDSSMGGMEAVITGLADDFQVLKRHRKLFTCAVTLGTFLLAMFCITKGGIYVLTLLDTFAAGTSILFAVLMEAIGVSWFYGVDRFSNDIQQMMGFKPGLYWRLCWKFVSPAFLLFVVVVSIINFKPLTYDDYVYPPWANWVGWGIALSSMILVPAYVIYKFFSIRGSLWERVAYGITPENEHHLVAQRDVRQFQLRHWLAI

As to `CCC(C)(C)NC(=O)N1CCN(CC2CC3c4ccccc4Cc4ccc(F)cc4C3O2)CC1` (stereo not drawn) [Compound 90], the IC50 in assay [1] was 4470 nM; in assay [2] it was 20 nM; in assay [3], 30.9 nM; in assay [4], 1.62 nM.

As to `COC(CNC(=O)N1CCN(CC2CC3c4ccccc4Cc4ccc(F)cc4C3O2)CC1)OC` (stereo not drawn) [Compound 91], the IC50 was 4070 nM in assay [1], 14.8 nM in assay [2], 37.2 nM in assay [3] and 1.15 nM in assay [4].

Turning to `CCOC(=O)CNC(=O)N1CCN(CC2CC3c4ccccc4Cc4ccc(F)cc4C3O2)CC1` (stereo not drawn) [Compound 92], the IC50 in assay [1] is > 10000 nM; in assay [2], 15.5 nM; in assay [3] it was 43.7 nM; in assay [4] it was 2.57 nM.

As to `O=C(NCCCc1ccccc1)N1CCN(CC2CC3c4ccccc4Cc4ccc(F)cc4C3O2)CC1` (stereo not drawn) [Compound 93], the IC50 is 4170 nM in assay [1], 5.01 nM in assay [2], 11.7 nM in assay [3] and 2.57 nM in assay [4].

With `O=C(NC1CC1)N1CCN(CC2CC3c4ccccc4Cc4ccc(F)cc4C3O2)CC1` (stereo not drawn) [Compound 94, [2R-(2α, 3aα, 12bβ)]4-(11-fluoro-3,3a,8,12b-tetrahydro-2H-1-oxa-dibenzo[e,h]-azulen-2-ylmethyl)-piperazine-1-carboxylic acid cyclopropylamide.oxalate (1:1)], the IC50 is 10700 nM in assay [1], 2.19 nM in assay [2], 35.5 nM in assay [3] and 0.389 nM in assay [4].

As for `O=C(NC1CCCCC1)N1CCN(CC2CC3c4ccccc4Cc4ccc(F)cc4C3O2)CC1` (stereo not drawn) [Compound 95], the IC50 in assay [1] is 9550 nM; in assay [2] it was 7.59 nM; in assay [3] it was 69.2 nM; in assay [4], 1.74 nM.

Take `COc1ccc(CNC(=O)N2CCN(CC3CC4c5ccccc5Cc5ccc(F)cc5C4O3)CC2)c(OC)c1` (stereo not drawn) [Compound 96]: the IC50 in assay [1] was > 10000 nM; in assay [2], 6.76 nM; in assay [3] it was 8.91 nM; in assay [4] it was 16.2 nM.

For `O=C(NC1CCCCCCC1)N1CCN(C[C@H]2C[C@@H]3c4ccccc4Cc4ccc(F)cc4[C@@H]3O2)CC1` [Compound 98], the IC50 in assay [1] is 9550 nM; in assay [2], 19.5 nM; in assay [3], 42.7 nM; in assay [4], 3.39 nM.

Consider `O=C(NCc1ccc(F)cc1)N1CCN(CC2CC3c4ccccc4Cc4ccc(F)cc4C3O2)CC1` (stereo not drawn) [Compound 99], for which the IC50 in assay [1] was > 10000 nM; in assay [2], 8.13 nM; in assay [3] it was 11.5 nM; in assay [4] it was 3.16 nM.

In the case of `O=C(NCc1cccc(C(F)(F)F)c1)N1CCN(CC2CC3c4ccccc4Cc4ccc(F)cc4C3O2)CC1` (stereo not drawn) [Compound 101], the IC50 in assay [1] is 8910 nM; in assay [2] it was 12 nM; in assay [3], 17.4 nM; in assay [4] it was 5.75 nM.

For the molecule `CS(=O)(=O)N1CCN(CC2CC3c4ccccc4Cc4ccc(F)cc4C3O2)CC1` (stereo not drawn) [Compound 102], the IC50 is > 10000 nM in assay [1], 12.6 nM in assay [2], 10.7 nM in assay [3] and 4.68 nM in assay [4].

As for `CCS(=O)(=O)N1CCN(CC2CC3c4ccccc4Cc4ccc(F)cc4C3O2)CC1` (stereo not drawn) [Compound 103], the IC50 in assay [1] is > 10000 nM; in assay [2], 50.1 nM; in assay [3], 19.5 nM; in assay [4], 7.76 nM.

`C=CS(=O)(=O)N1CCN(CC2CC3c4ccccc4Cc4ccc(F)cc4C3O2)CC1` (stereo not drawn) [Compound 104]: the IC50 in assay [1] is > 10000 nM; in assay [2], 28.2 nM; in assay [3] it was 30.9 nM; in assay [4], 8.32 nM.

For `O=S(=O)(Cc1ccccc1)N1CCN(CC2CC3c4ccccc4Cc4ccc(F)cc4C3O2)CC1` (stereo not drawn) [Compound 105], the IC50 in assay [1] is > 10000 nM; in assay [2], 30.9 nM; in assay [3], 4.07 nM; in assay [4] it was 4.68 nM.

On to `O=S(=O)(c1ccccc1)N1CCN(CC2CC3c4ccccc4Cc4ccc(F)cc4C3O2)CC1` (stereo not drawn) [Compound 106], for which the IC50 in assay [1] was 9550 nM; in assay [2], 61.7 nM; in assay [3], 44.7 nM; in assay [4], 16.6 nM.

Regarding `Cc1ccc(S(=O)(=O)N2CCN(CC3CC4c5ccccc5Cc5ccc(F)cc5C4O3)CC2)cc1` (stereo not drawn) [Compound 107], the IC50 was > 10000 nM in assay [1], 331 nM in assay [2], 81.3 nM in assay [3] and 83.2 nM in assay [4].

As to `CCCCNC(=S)N1CCN(C[C@H]2C[C@@H]3c4ccccc4Cc4ccc(F)cc4[C@@H]3O2)CC1` [Compound 108], the IC50 in assay [1] was 3240 nM; in assay [2], 16.2 nM; in assay [3] it was 29.5 nM; in assay [4], 4.57 nM.

With `CC(C)(C)NC(=S)N1CCN(CC2CC3c4ccccc4Cc4ccc(F)cc4C3O2)CC1` (stereo not drawn) [Compound 109], the IC50 in assay [1] is 263 nM; in assay [2], 38.9 nM; in assay [3] it was 132 nM; in assay [4] it was 14.5 nM.

As to `CCOC(=O)CNC(=S)N1CCN(CC2CC3c4ccccc4Cc4ccc(F)cc4C3O2)CC1` (stereo not drawn) [Compound 110], the IC50 is 5750 nM in assay [1], 47.9 nM in assay [2], 36.3 nM in assay [3] and 6.17 nM in assay [4].

For the molecule `O=C(NC(=S)N1CCN(CC2CC3c4ccccc4Cc4ccc(F)cc4C3O2)CC1)c1ccccc1` (stereo not drawn) [Compound 111], the IC50 was 3090 nM in assay [1], 9.77 nM in assay [2], 27.5 nM in assay [3] and 3.89 nM in assay [4].

`COc1ccc(NC(=S)N2CCN(CC3CC4c5ccccc5Cc5ccc(F)cc5C4O3)CC2)cc1` (stereo not drawn) [Compound 112]: the IC50 in assay [1] is 933 nM; in assay [2], 21.9 nM; in assay [3], 20.4 nM; in assay [4], 3.31 nM.

Take `Fc1ccc2c(c1)C1OC(CN3CCN(C(=S)NCc4ccccc4)CC3)CC1c1ccccc1C2` (stereo not drawn) [Compound 113]: the IC50 was 2400 nM in assay [1], 24 nM in assay [2], 50.1 nM in assay [3] and 11 nM in assay [4].

Turning to `Fc1ccc2c(c1)C1OC(CN3CCN(C(=S)NC4CCCCC4)CC3)CC1c1ccccc1C2` (stereo not drawn) [Compound 114], the IC50 is 1100 nM in assay [1], 20.9 nM in assay [2], 45.7 nM in assay [3] and 6.17 nM in assay [4].

As for `Fc1ccc2c(c1)C1OC(CN3CCN(C(=S)Nc4ccccc4)CC3)CC1c1ccccc1C2` (stereo not drawn) [Compound 115], the IC50 in assay [1] is 490 nM; in assay [2] it was 22.4 nM; in assay [3], 112 nM; in assay [4] it was 7.41 nM.

Consider `COc1ccc(N2CCN(CC3CC4c5ccccc5Cc5ccc(F)cc5C4O3)CC2)cc1` (stereo not drawn) [Compound 116], for which the IC50 in assay [1] was 7240 nM; in assay [2] it was 20 nM; in assay [3] it was 37.2 nM; in assay [4], 9.77 nM.

For the molecule `Fc1ccc2c(c1)C1OC(CN3CCN(c4ccccn4)CC3)CC1c1ccccc1C2` (stereo not drawn) [Compound 117], the IC50 in assay [1] is 4570 nM; in assay [2], 2.51 nM; in assay [3] it was 15.5 nM; in assay [4] it was 1.48 nM.

`COc1cccc(N2CCN(CC3CC4c5ccccc5Cc5ccc(F)cc5C4O3)CC2)n1` (stereo not drawn) [Compound 118]: the IC50 is 2820 nM in assay [1], 7.59 nM in assay [2], 26.3 nM in assay [3] and 4.9 nM in assay [4].

Consider `Fc1ccc2c(c1)[C@@H]1O[C@@H](CN3CCN(c4cccc(C(F)(F)F)n4)CC3)C[C@@H]1c1ccccc1C2` [Compound 119], for which the IC50 in assay [1] is 4070 nM; in assay [2], 51.3 nM; in assay [3], 158 nM; in assay [4], 10.2 nM.

Turning to `Fc1ccc2c(c1)C1OC(CN3CCN(c4ccc(C(F)(F)F)cn4)CC3)CC1c1ccccc1C2` (stereo not drawn) [Compound 120], the IC50 is > 10000 nM in assay [1], 87.1 nM in assay [2], 363 nM in assay [3] and 35.5 nM in assay [4].

Turning to `Fc1ccc2c(c1)C1OC(CN3CCN(c4ncccc4C(F)(F)F)CC3)CC1c1ccccc1C2` (stereo not drawn) [Compound 121], the IC50 in assay [1] is 3550 nM; in assay [2] it was 77.6 nM; in assay [3], 77.6 nM; in assay [4], 13.2 nM.
